Source: US12473324B2, “Triazine-based amphiphilic compound and use thereof” (INDUSTRY-UNIVERSITY COOPERATION FOUNDATION HANYANG …, priority 2019, dated 2025)

What was measured:
[1] = Critical micelle concentration (CMC) by fluorescent dye diphenylhexatriene (DPH); type: physicochemical; settings: DPH fluorescence
Procedure: A method of measuring the CMC is not particularly limited, but a method widely known in the art may be used, and for example, the CMC may be measured by a fluorescent staining method using diphenylhexatriene (DPH).
(§1) Specifically, the critical micelle concentrations (CMCs) were measured using a fluorescent dye, diphenylhexatriene (DPH), and the hydrodynamic radii (Rh) of micelles formed by each preparation (1.0 wt %) were determined by a dynamic light scattering (DLS) experiment. The measured results are shown in Table 1 compared to DDM which is an existing amphiphilic molecule (detergent).

[2] = Hydrodynamic radius (Rh) of micelles by dynamic light scattering (DLS); type: physicochemical; settings: 1.0 wt % detergent
Procedure: A method of measuring the radius of micelle is not particularly limited, but a method widely known in the art may be used, and for example, the radius of micelle may be measured using a dynamic light scattering (DLS) experiment.
as §1

[3] = Solubility of detergent (Table 1); type: physicochemical
[4] = test system: leucine transporter (LeuT); assay: LeuT structural stability: [3H]-Leu binding by scintillation proximity assay (SPA); type: biochemical, Aquifex aeolicus; settings: CMC+0.04 wt % or CMC+0.2 wt %, room temperature, 13-day incubation, [3H]-Leu SPA
Procedure: Experiments were performed to measure the structural stability of the LeuT protein by TSMs, TTGs and TEMs. Each amphiphilic compound was used at a concentration of (a) CMC+0.04 wt % or (b) CMC+0.2 wt %, and the substrate binding properties of LeuT were measured using [^3H]-Leu via scintillation proximity assay (SPA). The measurement was performed at regular intervals over the course of a 13-day and 12-day incubation at room temperature, respectively.
Specifically, a wild-type leucine transporter (LeuT) derived from the thermophilic bacterium Aquifex aeolicus was purified by a previously described method (Nature 1998, 392, 353-358 by G. Deckert et al.). LeuT was expressed in E. coli C41 (DE3) transformed with pET16b encoding the C-terminal 8×His-tagged transporter (expression plasmids were provided from Dr E. Gouaux, Vollum Institute, Portland, Oregon, USA). In summary, after a bacterial membrane was isolated and solubilized in 1 wt % DDM, the protein was bound to Ni^2+-NTA resin (Life Technologies, Denmark), and eluted in 20 mM Tris-HCl (pH 8.0), 1 mM NaCl, 199 mM KCl, 0.05% (w/v) DDM and 300 mM imidazole. Then, the purified LeuT (0.5 mg/ml) was diluted with buffers supplemented with TSMs, TTGs, TEMs or DDM at a final concentration of CMC+0.04% (w/v) or CMC+0.2% (w/v) except for DDM and imidazole in the equivalent buffer described above. Protein samples were incubated at room temperature for 13 days, centrifuged at a specified time, and protein properties were confirmed by measuring [^3H]-Leucine binding ability using SPA. SPA was performed with 5 μL of each protein sample in a buffer containing 450 mM NaCl and each of TSMs and TEMs (or DDM). The SPA reaction was performed in the presence of 20 nM [^3H]-Leucine and 1.25 mg/ml copper chelate (His-Tag) YSi beads (PerkinElmer, Denmark). Overall [^3H]-Leucine coupling to each sample was measured using a MicroBeta liquid scintillation counter (Perkin Elmer).

[5] = target: human β2 adrenergic receptor (β2AR) (Homo sapiens, UniProt P07550); assay: β2AR stability: [3H]-dihydroalprenolol (DHA) ligand binding assay; settings: CMC+0.2 wt %, room temperature, 6 days, [3H]-DHA
Sequence of human β2 adrenergic receptor (β2AR) (P07550 whole entry): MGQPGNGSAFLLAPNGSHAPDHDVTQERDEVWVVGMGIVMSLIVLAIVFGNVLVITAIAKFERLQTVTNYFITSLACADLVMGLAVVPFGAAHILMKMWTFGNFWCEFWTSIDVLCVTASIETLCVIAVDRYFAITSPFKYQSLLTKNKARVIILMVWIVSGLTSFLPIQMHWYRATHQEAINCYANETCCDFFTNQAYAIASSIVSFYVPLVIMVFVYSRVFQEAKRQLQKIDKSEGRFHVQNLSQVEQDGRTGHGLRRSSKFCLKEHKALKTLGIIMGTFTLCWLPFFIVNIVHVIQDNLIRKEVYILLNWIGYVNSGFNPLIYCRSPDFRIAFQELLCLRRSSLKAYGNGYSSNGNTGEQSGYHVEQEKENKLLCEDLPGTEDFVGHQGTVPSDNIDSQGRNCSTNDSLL
Procedure: Experiments were performed to measure the structural stability of the human β2 adrenergic receptor (β2AR) and G-protein-coupled receptor (GPCR) by TSMs, TTGs and TEMs. That is, a receptor purified by DDM was subjected to amphiphilic molecular exchange when diluted with a buffer solution containing only each of TSMs, TTGs and TEMs without cholesteryl hemisuccinate (CHS) or a buffer solution containing CHS and DDM. The final concentration of the amphiphilic molecule was CMC+0.2 wt %, and the ligand binding properties of the receptor were measured by binding of [^3H]-dihydroalprenolol ([^3H]-DHA). Specifically, the following method was used for a radioligand binding test. β2AR was purified using 0.1% DDM (D. M. Rosenbaum et al., Science, 2007, 318, 1266-1273.) and finally concentrated to about 10 mg/ml (about 200 μM). A master binding mixture containing 10 nM [^3H]-dihydroalprenolol (DHA) supplemented with 0.5 mg/ml BSA in 0.2% amphiphilic compounds (DDM, TSMs, TTGs or TEMs) was prepared using β2AR purified with DDM. Receptors purified with DDM, TSMs, TTGs or TEMs were incubated with 10 nM [^3H]-DHA at room temperature for 6 days. The mixture was loaded onto a G-50 column and a flow through was collected with 1 ml of a binding buffer (20 mM HEPES supplemented with 0.5 mg/ml BSA and 20×CMC each amphiphilic compound, pH 7.5, 100 mM NaCl), and filled with 15 ml of a scintillation fluid. Receptor-bound [^3H]-DHA was measured by a scintillation counter (Beckman). The binding of [^3H]-DHA is shown as a column graph.

[6] = target: T1, Salmonella typhimurium melibiose permease (MelBSt) (Salmonella typhimurium, UniProt P30878); assay: MelB extraction and thermal solubilization stability (SDS-PAGE, Western blotting); type: biochemical; settings: 1.5 wt % detergent, 90 minutes
T1 construct: made in house; host or cells: E. coli DW2 cells
T1 sequence (P30878 whole entry): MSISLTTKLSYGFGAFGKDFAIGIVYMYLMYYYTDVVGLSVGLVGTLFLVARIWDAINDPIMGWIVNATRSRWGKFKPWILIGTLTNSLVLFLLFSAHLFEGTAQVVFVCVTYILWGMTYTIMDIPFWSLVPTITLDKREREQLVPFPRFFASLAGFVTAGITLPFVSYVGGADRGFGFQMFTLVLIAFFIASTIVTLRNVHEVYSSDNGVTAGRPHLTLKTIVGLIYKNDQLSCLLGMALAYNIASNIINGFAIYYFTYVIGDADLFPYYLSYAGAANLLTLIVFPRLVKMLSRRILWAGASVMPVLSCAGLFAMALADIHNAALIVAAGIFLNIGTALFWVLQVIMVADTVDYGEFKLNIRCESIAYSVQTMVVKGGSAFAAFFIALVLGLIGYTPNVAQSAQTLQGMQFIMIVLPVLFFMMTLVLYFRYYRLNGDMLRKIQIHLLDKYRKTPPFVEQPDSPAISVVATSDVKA
Procedure: Experiments were performed to measure the structural stability of Salmonella typhimurium melibiose permease (MelBSt) protein by TSMs, TTGs and TEMs. After the MelB protein was extracted from the membrane using TSMs, TTGs, TEMs or DDM, the amount and structure of the extracted protein were analyzed by SDS-PAGE and Western blotting. The concentration of the amphiphilic compound used was 1.5 wt %, the protein was extracted at 0° C. for 90 minutes and then the extracted protein was incubated at three high temperatures (45, 55, and 65° C.) for an additional 90 minutes. By measuring the amount of protein remaining in a dissolved state in an aqueous solution of the extracted protein and the heat-treated protein, we tried to evaluate the performance of both the protein extraction efficiency and stabilization ability of the compound at the same time. […]
Specifically, Salmonella typhimurium melibiose permease (MelBSt) having a 10-His tag at the C-terminus was expressed in E. coli DW2 cells (βmelB and βlacZY) using a plasmid pK95βAHB/WT MelBSt/CH10. […] MelBSt was measured by an ImageQuant LAS 4000 Biomolecular Imager (GE Health Care Lifer Science) using a SuperSignal West Pico chemiluminescent substrate.

[7] = test system: BOR1-GFP fusion protein; assay: AtBOR1 thermal stability, fluorescence size exclusion chromatography (FSEC); settings: 1% detergent, heated at 47° C. for 10 minutes
Procedure: Fluorescence size exclusion chromatography (FSEC): BOR1 of Arabidopsis thaliana was expressed in Saccharomyces cerevisiae FGY217 cells as a fusion protein having a C-terminal GFP tag. The cells were grown in a URA medium supplemented with 0.1% glucose. Protein expression was induced by adding 2% galactose, and then the cells were cultured at 20° C. for 18 hours as previously described. The cells were collected and used to prepare a membrane. The membrane including the BOR1-GFP fusion protein was diluted as follows. […] Samples were cultured while shaking at 4° C. for 1 hour, and then insoluble materials were removed by centrifugation at 14,000 g and 4° C. for 1 hour. A supernatant including the solubilized protein sample was heated at 47° C. for 10 minutes. After additional centrifugation to remove large aggregates, a 200 μl aliquot of the sample was injected into a Superose 6 10/300 column equilibrated with 20 mm Tris (pH 7.5), 150 mm NaCl and 0.03% DDM. The GFP fluorescence of each fraction was read using an excitation wavelength of 470 nm and an emission wavelength of 512 nm.

[8] = target: μ-opioid receptor (MOR) (Mus musculus, UniProt P42866); assay: MOR thermal stability test (CPM dye, melting point Tm); type: biochemical; settings: 0.5 wt % compound, CPM fluorescence, 20° C. to 65° C.
Sequence of μ-opioid receptor (MOR) (P42866 whole entry): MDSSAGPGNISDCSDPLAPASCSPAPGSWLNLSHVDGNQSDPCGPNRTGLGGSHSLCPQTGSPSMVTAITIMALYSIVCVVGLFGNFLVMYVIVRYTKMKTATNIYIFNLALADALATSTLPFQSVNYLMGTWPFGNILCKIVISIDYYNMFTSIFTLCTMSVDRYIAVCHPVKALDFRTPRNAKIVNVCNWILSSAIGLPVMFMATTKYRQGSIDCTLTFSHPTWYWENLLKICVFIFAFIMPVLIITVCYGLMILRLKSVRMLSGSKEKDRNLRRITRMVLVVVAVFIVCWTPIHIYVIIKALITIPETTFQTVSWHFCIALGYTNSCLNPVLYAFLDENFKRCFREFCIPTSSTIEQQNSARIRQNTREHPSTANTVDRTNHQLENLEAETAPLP
Procedure: An N-[4-(7-diethylamino-4-methyl-3-coumarinyl)phenyl]maleimide (CPM) dye dissolved in DMSO (3 mg/ml) was diluted 40× in a buffer including 20 mM HEPES pH 7.5 and 150 mM NaCl. […] After 1 hour at room temperature, a compound was prepared at a final concentration of 0.5 wt % by diluting the receptor solution 2× in 20 mM HEPES pH 7.5, 150 mM NaCl. After […] of the diluted CPM dye was added thereto, the receptor stability of different compounds was measured by recording the fluorescence spectra (excitation 387 nm) every 5° C. from 20° C. to 65° C. while culturing at each temperature for 2 minutes. The melting point (Tm) was calculated by plotting the read value at 470 nm and fitting a non-linear regression curve using GraphPad Prism.

Row | SMILES | CMC [1] [mM] | Rh (nm) [2] [nm] | solubility [3] [%] | LeuT substrate binding properties over incubation [4] | β2AR long-term ligand binding retention [5] | MelB protein extraction efficiency at 0° C. [6] | AtBOR1 thermal stability by FSEC (protein peak vs aggregation peak) [7] | MOR melting point (Tm) [8] [°C]
1 | CCCCCCCCCCSc1nc(NC(CO[C@@H]2O[C@H](CO)[C@@H](O)[C@H](O)[C@H]2O)(CO[C@@H]2O[C@H](CO)[C@@H](O)[C@H](O)[C@H]2O)CO[C@@H]2O[C@H](CO)[C@@H](O)[C@H](O)[C@H]2O)nc(SCCCCCCCCCC)n1 [TTG-T10] | ~0.006 | 3.6 ± 0.10 | ~10 | best substrate binding activity | better in maintaining the ligand binding ability of the receptor than DDM |  |  | 
2 | CCCCCCCCCSc1nc(NC(CO[C@@H]2O[C@H](CO)[C@@H](O[C@H]3O[C@H](CO)[C@@H](O)[C@H](O)[C@H]3O)[C@H](O)[C@H]2O)CO[C@@H]2O[C@H](CO)[C@@H](O[C@H]3O[C@H](CO)[C@@H](O)[C@H](O)[C@H]3O)[C@H](O)[C@H]2O)nc(SCCCCCCCCC)n1 [TSM-T9] | ~0.004 | 5.1 ± 0.1 | ~10 | best substrate binding activity | better in maintaining the ligand binding ability of the receptor than DDM |  |  | 
3 | CCCCCCCCSc1nc(NC(CO[C@@H]2O[C@H](CO)[C@@H](O[C@H]3O[C@H](CO)[C@@H](O)[C@H](O)[C@H]3O)[C@H](O)[C@H]2O)CO[C@@H]2O[C@H](CO)[C@@H](O[C@H]3O[C@H](CO)[C@@H](O)[C@H](O)[C@H]3O)[C@H](O)[C@H]2O)nc(SCCCCCCCC)n1 [TSM-T8] | ~0.006 | 4.2 ± 0.0 | ~10 |  | better in maintaining the ligand binding ability of the receptor than DDM |  |  | 
4 | CCCCCCCCCCCCSc1nc(NC(CO[C@@H]2O[C@H](CO)[C@@H](O)[C@H](O)[C@H]2O)(CO[C@@H]2O[C@H](CO)[C@@H](O)[C@H](O)[C@H]2O)CO[C@@H]2O[C@H](CO)[C@@H](O)[C@H](O)[C@H]2O)nc(SCCCCCCCCCCCC)n1 [TTG-T12] | ~0.0035 | 5.5 ± 0.20 | ~5 | best substrate binding activity | better in maintaining the ligand binding ability of the receptor than DDM |  |  | 
5 | CCCCCCCCCCCCO[C@@H]1O[C@H](CO)[C@@H](O[C@H]2O[C@H](CO)[C@@H](O)[C@H](O)[C@H]2O)[C@H](O)[C@H]1O [DDM, n-dodecyl-β-D-maltopyranoside, reference compound] | ~0.17 | 3.4 ± 0.03 | ~10 | high initial activity, but the substrate binding ability sharply decreased with the passage of time |  | high MelB protein extraction efficiency | significant reduction in the original homogeneous protein peak | 
6 | CCCCCCCSc1nc(NC(CO[C@@H]2O[C@H](CO)[C@@H](O[C@H]3O[C@H](CO)[C@@H](O)[C@H](O)[C@H]3O)[C@H](O)[C@H]2O)CO[C@@H]2O[C@H](CO)[C@@H](O[C@H]3O[C@H](CO)[C@@H](O)[C@H](O)[C@H]3O)[C@H](O)[C@H]2O)nc(SCCCCCCC)n1 [TSM-T7] | ~0.01 | 3.6 ± 0.1 | ~10 |  | better in maintaining the ligand binding ability of the receptor than DDM |  |  | 
7 | CCCCCCCCCCOc1nc(NC(CO[C@@H]2O[C@H](CO)[C@@H](O[C@H]3O[C@H](CO)[C@@H](O)[C@H](O)[C@H]3O)[C@H](O)[C@H]2O)CO[C@@H]2O[C@H](CO)[C@@H](O[C@H]3O[C@H](CO)[C@@H](O)[C@H](O)[C@H]3O)[C@H](O)[C@H]2O)nc(OCCCCCCCCCC)n1 [TSM-E10] | ~0.004 | 8.7 ± 0.7 | ~5 |  | better in maintaining the ligand binding ability of the receptor than DDM |  |  | 48.9
8 | CCCCCCCCCCCSc1nc(NC(CO[C@@H]2O[C@H](CO)[C@@H](O)[C@H](O)[C@H]2O)(CO[C@@H]2O[C@H](CO)[C@@H](O)[C@H](O)[C@H]2O)CO[C@@H]2O[C@H](CO)[C@@H](O)[C@H](O)[C@H]2O)nc(SCCCCCCCCCCC)n1 [TTG-T11] | ~0.004 | 3.7 ± 0.09 | ~10 | best substrate binding activity | better in maintaining the ligand binding ability of the receptor than DDM |  |  | 
9 | CCCCCCCCCSc1nc(NC(CO[C@@H]2O[C@H](CO)[C@@H](O)[C@H](O)[C@H]2O)(CO[C@@H]2O[C@H](CO)[C@@H](O)[C@H](O)[C@H]2O)CO[C@@H]2O[C@H](CO)[C@@H](O)[C@H](O)[C@H]2O)nc(SCCCCCCCCC)n1 [TTG-T9] | ~0.010 | 3.3 ± 0.11 | ~10 |  | better in maintaining the ligand binding ability of the receptor than DDM |  |  | 
10 | CCCCCCCCCCCOc1nc(NC(CO[C@@H]2O[C@H](CO)[C@@H](O[C@H]3O[C@H](CO)[C@@H](O)[C@H](O)[C@H]3O)[C@H](O)[C@H]2O)CO[C@@H]2O[C@H](CO)[C@@H](O[C@H]3O[C@H](CO)[C@@H](O)[C@H](O)[C@H]3O)[C@H](O)[C@H]2O)nc(OCCCCCCCCCCC)n1 [TSM-E11] | ~0.002 | 56.2 ± 9.9 | ~1 |  | better in maintaining the ligand binding ability of the receptor than DDM |  |  | 
